The values below come from paper PMC7587356, “High-Throughput Screening for Inhibitors of the SARS-CoV-2 Protease Using a FRET-Biosensor” (Molecules, 2020).

The structures appear in SMILES notation. Read-outs that look alike come from different tables or passages of the source.

In the experiment the target is SARS-CoV-2 3CLpro (Severe acute respiratory syndrome coronavirus 2, UniProt P0DTD1). Description: biochemical. The experiment is classed as biochemical. Also noted: Replicate_1 / Replicate_2 / mean / mean (LOPAC_screen_w_protease): unit not given here. To be noted: for inhibition at 5 µM: 4 h.
Where [1] appears, read: sheet LOPAC_screen_w_protease, primary screen of LOPAC1280 at 5 µM with protease, mean of the two replicates.
[2] abbreviates: sheet LOPAC_screen_w_protease, primary screen of LOPAC1280 at 5 µM with protease, replicate 1.
[3] abbreviates: sheet LOPAC_screen_w_protease, primary screen of LOPAC1280 at 5 µM with protease, replicate 2.
Setting [4] is: sheet LOPAC_screen_w_protease, LOPAC1280 primary screen at 5 µM, with protease, mean of the two replicates.
Setting [5] is: sheet LOPAC_screen_w_protease, LOPAC1280 primary screen at 5 µM, with protease, replicate 1.
The mark [6] stands for this setting: sheet LOPAC_screen_w_protease, LOPAC1280 primary screen at 5 µM, with protease, replicate 2.
[7] abbreviates: sheet LOPAC_screen_w_protease, primary screen with protease, compound at 5 µM, mean of two replicates.
The mark [8] stands for this setting: sheet LOPAC_screen_w_protease, primary screen with protease, compound at 5 µM, replicate 1.
Setting [9] is: sheet LOPAC_screen_w_protease, primary screen with protease, compound at 5 µM, replicate 2.
[10] abbreviates: LOPAC1280 primary screen with protease, 5 µM compound, replicate 1, read-out: Replicate_1 (LOPAC_screen_w_protease).
The mark [11] stands for this setting: LOPAC1280 primary screen with protease, 5 µM compound, replicate 2, read-out: Replicate_2 (LOPAC_screen_w_protease).
Setting [12] is: LOPAC1280 primary screen with protease, 5 µM compound, mean of two replicates.

Compound `C/C=C1\C(=O)C[C@H]2[C@@H]3CCC4=CC(=O)CC[C@]4(C)[C@H]3CC[C@]12C` [(Z)-Gugglesterone] showed a mean under setting [1] of 3.352. The same compound registered a Replicate_1 under setting [2] of 5.164. In addition, the Replicate_2 under setting [3] was determined as 1.54.

Consider `Cl.NC[C@@H]1O[C@H](C23CC4CC(CC(C4)C2)C3)Cc2c1ccc(O)c2O` [A-77636 hydrochloride], for which, where the note is “sheet LOPAC_screen_w_protease, primary screen at 5 µM, mean of two replicates”, the “mean (LOPAC screen with protease)” value came to 61.6634. For the same compound, the “Replicate_1 (LOPAC screen with protease)” value (sheet LOPAC_screen_w_protease, primary screen at 5 µM, replicate 1) is recorded as 62.3885. For the same compound, the “Replicate_2 (LOPAC screen with protease)” value (sheet LOPAC_screen_w_protease, primary screen at 5 µM, replicate 2) was 60.9383.

Turning to `CCS(=O)(=O)Nc1cccc(C(=C2CCCCC2)c2c[nH]cn2)c1` [A-315456], the mean under setting [4] turned out to be 0.823. Further, the Replicate_1 under setting [5] was determined as 1.277. The compound also registered a Replicate_2 under setting [6] of 0.3687.

As to `CC1=C(C)C(=O)C(CCCCC#CCCCC#CCO)=C(C)C1=O` [AA-861], the inhibition at 5 µM is, setting by setting: (sheet LOPAC_screen_w_protease, primary screen with protease, mean of two replicates, read-out: mean) 2.27%; (sheet LOPAC_screen_w_protease, primary screen with protease, replicate 1, read-out: Replicate_1) 3.11%; (sheet LOPAC_screen_w_protease, primary screen with protease, replicate 2, read-out: Replicate_2) 1.43%.

Take `CNC(=O)[C@H]1O[C@@H](n2cnc3c(NCc4ccc(N)cc4)ncnc32)[C@H](O)[C@@H]1O` [AB-MECA]: the mean under setting [7] is 2.5809. Further, the Replicate_1 under setting [8] is given as 2.895. The compound further gave a Replicate_2 under setting [9] of 2.266.

As to `O=C(Cc1ccc(Cl)c(Cl)c1)OCCN1CCCC1.O=C(O)C(=O)O` [AC 915 oxalate], for the setting “sheet LOPAC_screen_w_protease, LOPAC1280 at 5 µM, mean of two replicates”, the mean came to 1.181. The Replicate_1 (sheet LOPAC_screen_w_protease, LOPAC1280 at 5 µM, replicate 1) was 1.4848. For the same compound, the Replicate_2 (sheet LOPAC_screen_w_protease, LOPAC1280 at 5 µM, replicate 2) is 0.8765.

`CC(C)C1C2CCC(C2)C1N.Cl` (centres unmarked) [AGN 192403 hydrochloride]: under setting [7], the mean is recorded as 2.735. The same compound came in with a Replicate_1 under setting [8] of 2.811. This compound also had a Replicate_2 under setting [9] of 2.66.

`NC1(C(=O)O)CCc2cc(C(=O)O)ccc21` (centres unmarked) [AIDA] yielded a mean under setting [1] of 3.327. Besides, the Replicate_1 under setting [2] is listed as 3.929. The same compound had a Replicate_2 under setting [3] of 2.7246.

As to `O=C(O)CCC/C=C\C[C@@H]1[C@@H](/C=C/[C@H](O)C2Cc3ccccc3C2)[C@@H](F)C[C@@H]1O` [AL-8810], the Replicate_1 came to 0.247, the Replicate_2 was found to be 1.148 and the mean is recorded as 0.6974.

Under setting [7], `CCN(CC)c1ncnc2c1ncn2[C@@H]1O[C@H](COP(=O)([O-])OP(=O)([O-])C(Br)(Br)P(=O)([O-])O)[C@@H](O)[C@H]1O.[Na+].[Na+].[Na+]` [ARL 67156 trisodium salt] yielded a mean of 2.893. For the same compound, under setting [8], the Replicate_1 is recorded as 2.692. Under setting [9], this compound showed a Replicate_2 of 3.094.

`CC(C)(C)c1o[nH]c(=O)c1CC(N)C(=O)O` (centres unmarked) [ATPA]: under setting [4], the mean is 0.4603. The compound also came in with a Replicate_1 under setting [5] of -0.08438. Under setting [6], this compound showed a Replicate_2 of 1.005.

With `CC(C)(C)c1onc(OCP(=O)(O)O)c1CC(N)C(=O)O` (centres unmarked) [ATPO], the mean under setting [7] is given as 3.0772. The compound further came in with a Replicate_1 under setting [8] of 4.002. This compound showed a Replicate_2 under setting [9] of 2.152.

Regarding `CC(=O)Nc1nnc(S(N)(=O)=O)s1` [Acetazolamide], the inhibition at 5 µM reads like this: (sheet LOPAC_screen_w_protease, primary screen with protease, 5 µM, replicate 1, read-out: Replicate_1) 0.216%; (sheet LOPAC_screen_w_protease, primary screen with protease, 5 µM, replicate 2, read-out: Replicate_2) -0.714%.

As to `CC(=O)c1ccc(S(=O)(=O)NC(=O)NC2CCCCC2)cc1` [Acetohexamide], the inhibition at 5 µM reads like this: (sheet LOPAC_screen_w_protease, primary screen of LOPAC1280 at 5 µM with protease, mean of the two replicates, read-out: mean) 3.3%; (sheet LOPAC_screen_w_protease, primary screen of LOPAC1280 at 5 µM with protease, replicate 1, read-out: Replicate_1) 2.5%; (sheet LOPAC_screen_w_protease, primary screen of LOPAC1280 at 5 µM with protease, replicate 2, read-out: Replicate_2) 4.1%.

`CC(=O)OC(C)C[N+](C)(C)C.[Cl-]` (stereo not drawn) [Acetyl-beta-methylcholine chloride] gave a mean (sheet LOPAC_screen_w_protease, primary screen with protease, 5 µM, mean of two replicates) of 0.2718. For the same compound, under “sheet LOPAC_screen_w_protease, primary screen with protease, 5 µM, replicate 1”, the Replicate_1 stood at 1.198. Where the note is “sheet LOPAC_screen_w_protease, primary screen with protease, 5 µM, replicate 2”, this compound had a Replicate_2 of -0.6541.

With `CC(=O)Oc1ccccc1C(=O)O` [Acetylsalicylic acid], the inhibition at 5 µM was found to be 1.9% under setting [10] and 1.38% under setting [11]. In addition, the “mean (LOPAC_screen_w_protease)” value under setting [12] is 1.637.

Under setting [4], `CC(=O)SCC[N+](C)(C)C.[Cl-]` [Acetylthiocholine chloride] gave a mean of 0.4496. Under setting [5], this compound gave a Replicate_1 of 1.2654. This compound showed a Replicate_2 under setting [6] of -0.3662.

With `CCCCC[C@H](CC(=O)NO)C(=O)N[C@H](C(=O)N1CCC[C@H]1CO)C(C)C` [Actinonin], the inhibition at 5 µM by setting is: under setting [10], 1.42%; under setting [11], 1.48%. Besides, under setting [12], the “mean (LOPAC_screen_w_protease)” value stood at 1.4498.
